Results: patent US20150185215A1, “Cell-Based Assays For Post-Translational Enzyme Activity” (Cell Assay Innovations, Inc., priority 2012, published 2015)

Biological target: lck (Homo sapiens, UniProt P06239)
Test: cell-based

Sequence of lck (P06239 whole entry): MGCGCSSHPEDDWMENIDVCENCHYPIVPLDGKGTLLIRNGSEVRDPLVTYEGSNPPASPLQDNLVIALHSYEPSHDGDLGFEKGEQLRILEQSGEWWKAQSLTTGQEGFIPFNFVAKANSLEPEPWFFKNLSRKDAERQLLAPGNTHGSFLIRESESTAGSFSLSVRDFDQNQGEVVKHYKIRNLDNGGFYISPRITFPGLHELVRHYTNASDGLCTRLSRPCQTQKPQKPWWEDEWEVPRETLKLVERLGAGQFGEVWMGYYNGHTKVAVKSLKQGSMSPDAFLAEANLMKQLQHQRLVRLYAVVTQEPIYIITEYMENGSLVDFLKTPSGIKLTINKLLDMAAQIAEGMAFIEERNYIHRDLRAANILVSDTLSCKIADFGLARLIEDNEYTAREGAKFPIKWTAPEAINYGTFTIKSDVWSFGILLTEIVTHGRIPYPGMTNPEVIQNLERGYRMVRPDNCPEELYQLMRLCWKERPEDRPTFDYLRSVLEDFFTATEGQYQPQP

In the case of `N#CC(=C(/N)Sc1ccccc1N)/C(C#N)=C(\N)Sc1ccccc1N` [U0126], the IC50 is reported as > 30 µM.
